Experimental data: PubChem BioAssay AID651552 (The Scripps Research Institute Molecular Screening Center, 2012)
The source made the active and inactive calls. No rule for the calls is given here.

Target: beta-lactamase TEM-1 reporter (bacterial) (UniProt Q932Y6)
Assay: beta-lactamase reporter inhibitor potency, dose response, artefact control for NOD2-RIPK2 interaction inhibitor project, BLA reporter cells, FRET fluorescence (AID 651552)
Settings: HEK293 BLA reporter cells

With `COc1ccc(C[C@H]2NC[C@H](O)[C@H]2OC(C)=O)cc1` the IC50 was > 49.8 µM (inactive).
For `C=CCn1c(O)c(C2=c3ccccc3=NC2=O)c2ccccc21`, the IC50 was > 49.7 µM (inactive).
